Common to all, as to type: biochemical
One experiment has as its target PI3K P110δ (Homo sapiens, UniProt O00329). The experiment can be described thus: PI3K HTRF activity assay. Particulars: dendrimer conc. 1 μM; read-out: Percentage (%) kinase inhibition PI3K P110δ. The protocol:
(§1) In a final reaction volume of 20 μL, the test PI3K is incubated in assay buffer containing 10 μM phosphatidylinositol-4,5-bisphosphate and MgATP. The reaction is initiated by the addition of the MgATP mix. After incubation for 30 minutes at room temperature, the reaction is stopped by the addition of 5 μL of stop solution containing EDTA and biotinylated phosphatidylinositol-3,4,5-trisphosphate. Finally, 5 μL of detection buffer is added (containing europium-labelled anti-GST monoclonal antibody, GST-tagged GRP1 PH domain and streptavidin-allophycocyanin). The test plate is then read in time-resolved fluorescence mode and the homogenous time-resolved fluorescence (HTRF) signal is determined according to the formula HTRF=10000×(Em665 nm/Em620 nm).
On the technique in general: In TR-FRET formats the signal depends on donor and acceptor labels being close together.

A further experiment deals with PI3K beta (Homo sapiens, UniProt P42338). The experiment in a line: PI3K HTRF activity assay. Particulars: dendrimer conc. 1 μM; read-out: Percentage (%) kinase inhibition PI3K P110β. The protocol:
as §1

The target of another experiment is c-RAF (h) (Homo sapiens, UniProt P04049). The experiment can be described thus: c-RAF kinase activity assay. Particulars: dendrimer conc. 1 μM; read-out: Percentage (%) kinase inhibition c-RAF. As to the method:
In a final reaction volume of 25 μL, c-RAF (h) (5-10 mU) is incubated with 25 mM Tris pH 7.5, 0.02 mM EGTA, 0.66 mg/mL myelin basic protein, 10 mM MgAcetate and [γ-33P-ATP] (specific activity approx. 500 cpm/pmol, concentration as required). The reaction is initiated by the addition of the MgATP mix. After incubation for 40 minutes at room temperature, the reaction is stopped by the addition of 5 μL of a 3% phosphoric acid solution. 10 μL of the reaction is then spotted onto a P30 filtermat and washed three times for 5 minutes in 75 mM phosphoric acid and once in methanol prior to drying and scintillation counting.

The target of the next experiment is MEK1 (h) (Homo sapiens, UniProt Q02750). The experiment can be described thus: MEK1 kinase activity assay. The conditions noted are these: dendrimer conc. 1 μM; read-out: Percentage (%) kinase inhibition MEK1. The protocol: The reaction is initiated by the addition of the MgATP. After incubation for 40 minutes at room temperature, 5 μL of this incubation mix is used to initiate an ERK2 (m) assay.

Another experiment has as its target PKB beta (Homo sapiens, UniProt P31751). The experiment can be described thus: PKB kinase activity assay. Particulars: dendrimer conc. 1 μM; read-out: Percentage (%) kinase inhibition PKB beta. As to the method: (§2) In a final reaction volume of 25 μL, PKB(h) (5-10 mU) is incubated with 8 mM MOPS pH 7.0, 0.2 mM EDTA, 30 μM GRPRTSSFAEGKK (SEQ ID No. 26), 10 mM MgAcetate and [γ-33P-ATP] (specific activity approx. 500 cpm/pmol, concentration as required). The reaction is initiated by the addition of the MgATP mix. After incubation for 40 minutes at room temperature, the reaction is stopped by the addition of 5 μL of a 3% phosphoric acid solution. 10 μL of the reaction mixture is then spotted onto a P30 filtermat and washed three times for 5 minutes in 75 mM phosphoric acid and once in methanol prior to drying and scintillation counting.

In the next experiment the target is PKB gamma (Homo sapiens, UniProt Q9Y243). The experiment in a line: PKB kinase activity assay. The conditions noted are these: dendrimer conc. 1 μM; read-out: Percentage (%) kinase inhibition PKB gamma. The protocol: as §2
The next experiment has as its target PKC alpha (Homo sapiens, UniProt P17252). The experiment in a line: PKC kinase activity assay. The conditions noted are these: dendrimer conc. 1 μM; read-out: Percentage (%) kinase inhibition PKC alpha. The protocol:
(§3) In a final reaction volume of […] PKC kinase (h) (5-10 mU) is incubated with 20 mM HEPES pH 7.4, 0.03% Triton X-100, […], 0.1 mg/mL phosphatidylserine, 10 μg/mL diacylglycerol, 0.1 mg/mL histone H1 or 50 μM of the peptide ERMRPRKRQGSVRRRV (SEQ ID No. 20), 10 mM MgAcetate and [γ-33P-ATP] (specific activity approx. 500 cpm/pmol, concentration as required). The reaction is initiated by the addition of the MgATP mix. After incubation for 40 minutes at room temperature, the reaction is stopped by the addition of 5 μL of a 3% phosphoric acid solution. 10 μL of the reaction is then spotted onto a P30 filtermat and washed three times for 5 minutes in 75 mM phosphoric acid and once in methanol prior to drying and scintillation counting.

Another experiment concerns the target PKC beta I (Homo sapiens, UniProt P05771). The experiment can be described thus: PKC kinase activity assay. The conditions noted are these: dendrimer conc. 1 μM; read-out: Percentage (%) kinase inhibition PKC beta I. The protocol:
as §3

In another experiment the target is PKC beta II (Homo sapiens, UniProt P05771). The experiment can be described thus: PKC kinase activity assay. Particulars: dendrimer conc. 1 μM; read-out: Percentage (%) kinase inhibition PKC beta II. As to the method:
as §3

Sequence of PI3K beta (P42338 whole entry, species assumed): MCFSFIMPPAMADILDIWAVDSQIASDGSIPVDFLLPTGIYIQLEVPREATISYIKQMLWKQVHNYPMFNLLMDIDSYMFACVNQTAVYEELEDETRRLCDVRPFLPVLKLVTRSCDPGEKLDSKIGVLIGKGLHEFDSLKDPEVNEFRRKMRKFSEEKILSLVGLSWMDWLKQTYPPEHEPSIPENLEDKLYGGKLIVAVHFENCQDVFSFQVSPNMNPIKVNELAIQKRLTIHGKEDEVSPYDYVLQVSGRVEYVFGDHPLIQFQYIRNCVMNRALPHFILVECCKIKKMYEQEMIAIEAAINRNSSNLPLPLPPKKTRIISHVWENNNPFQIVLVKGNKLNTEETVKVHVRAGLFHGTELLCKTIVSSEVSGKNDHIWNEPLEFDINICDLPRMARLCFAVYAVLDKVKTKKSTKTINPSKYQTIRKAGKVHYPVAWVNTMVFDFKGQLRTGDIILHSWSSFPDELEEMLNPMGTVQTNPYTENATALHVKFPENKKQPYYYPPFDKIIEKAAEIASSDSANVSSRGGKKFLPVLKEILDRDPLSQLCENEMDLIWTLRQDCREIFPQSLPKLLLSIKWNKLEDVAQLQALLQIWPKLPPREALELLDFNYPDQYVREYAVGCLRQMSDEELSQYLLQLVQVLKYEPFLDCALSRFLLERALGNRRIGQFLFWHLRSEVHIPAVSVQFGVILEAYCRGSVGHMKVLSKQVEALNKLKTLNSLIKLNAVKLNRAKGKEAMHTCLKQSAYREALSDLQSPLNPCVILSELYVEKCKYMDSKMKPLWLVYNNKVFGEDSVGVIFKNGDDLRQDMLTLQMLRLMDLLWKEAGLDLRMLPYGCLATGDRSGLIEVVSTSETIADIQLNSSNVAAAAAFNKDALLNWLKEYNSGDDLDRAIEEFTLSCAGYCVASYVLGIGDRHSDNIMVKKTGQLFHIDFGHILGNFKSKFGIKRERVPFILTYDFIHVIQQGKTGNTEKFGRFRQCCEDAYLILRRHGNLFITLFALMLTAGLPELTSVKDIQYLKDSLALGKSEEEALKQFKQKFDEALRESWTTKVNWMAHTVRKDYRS
Sequence of PI3K beta (P27986 whole entry partner, species assumed): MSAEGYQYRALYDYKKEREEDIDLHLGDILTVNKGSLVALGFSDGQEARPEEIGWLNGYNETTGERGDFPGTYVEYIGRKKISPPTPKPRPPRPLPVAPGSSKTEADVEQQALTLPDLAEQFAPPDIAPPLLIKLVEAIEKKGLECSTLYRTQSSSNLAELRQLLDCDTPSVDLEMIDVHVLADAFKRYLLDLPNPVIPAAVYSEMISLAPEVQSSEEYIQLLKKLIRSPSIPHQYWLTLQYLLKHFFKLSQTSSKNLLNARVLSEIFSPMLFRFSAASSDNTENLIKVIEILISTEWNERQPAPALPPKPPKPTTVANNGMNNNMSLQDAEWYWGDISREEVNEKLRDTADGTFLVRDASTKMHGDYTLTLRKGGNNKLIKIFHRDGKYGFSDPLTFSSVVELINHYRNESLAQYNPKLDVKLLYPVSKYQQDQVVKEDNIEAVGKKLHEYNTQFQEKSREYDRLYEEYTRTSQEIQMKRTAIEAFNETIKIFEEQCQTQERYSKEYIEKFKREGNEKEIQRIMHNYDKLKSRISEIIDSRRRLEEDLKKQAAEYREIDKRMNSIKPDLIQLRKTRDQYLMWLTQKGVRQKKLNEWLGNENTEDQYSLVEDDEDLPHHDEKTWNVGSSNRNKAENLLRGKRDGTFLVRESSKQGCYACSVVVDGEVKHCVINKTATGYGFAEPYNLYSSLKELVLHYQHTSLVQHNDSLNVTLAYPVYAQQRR
Sequence of PKB beta (P31751 whole entry): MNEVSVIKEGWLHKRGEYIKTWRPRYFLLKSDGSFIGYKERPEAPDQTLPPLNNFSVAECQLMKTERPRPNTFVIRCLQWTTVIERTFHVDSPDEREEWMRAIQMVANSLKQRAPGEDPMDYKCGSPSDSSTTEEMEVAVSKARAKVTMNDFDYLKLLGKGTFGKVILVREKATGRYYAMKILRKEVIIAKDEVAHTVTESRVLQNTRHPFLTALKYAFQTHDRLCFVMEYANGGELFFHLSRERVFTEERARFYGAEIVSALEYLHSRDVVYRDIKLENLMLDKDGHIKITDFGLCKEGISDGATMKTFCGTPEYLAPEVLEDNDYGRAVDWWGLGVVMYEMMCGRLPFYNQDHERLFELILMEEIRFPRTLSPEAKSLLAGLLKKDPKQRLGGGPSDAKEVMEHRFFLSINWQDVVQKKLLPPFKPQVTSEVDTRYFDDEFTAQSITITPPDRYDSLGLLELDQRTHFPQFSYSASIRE
Sequence of PKC beta II (P05771 1-673 isoform P05771-2): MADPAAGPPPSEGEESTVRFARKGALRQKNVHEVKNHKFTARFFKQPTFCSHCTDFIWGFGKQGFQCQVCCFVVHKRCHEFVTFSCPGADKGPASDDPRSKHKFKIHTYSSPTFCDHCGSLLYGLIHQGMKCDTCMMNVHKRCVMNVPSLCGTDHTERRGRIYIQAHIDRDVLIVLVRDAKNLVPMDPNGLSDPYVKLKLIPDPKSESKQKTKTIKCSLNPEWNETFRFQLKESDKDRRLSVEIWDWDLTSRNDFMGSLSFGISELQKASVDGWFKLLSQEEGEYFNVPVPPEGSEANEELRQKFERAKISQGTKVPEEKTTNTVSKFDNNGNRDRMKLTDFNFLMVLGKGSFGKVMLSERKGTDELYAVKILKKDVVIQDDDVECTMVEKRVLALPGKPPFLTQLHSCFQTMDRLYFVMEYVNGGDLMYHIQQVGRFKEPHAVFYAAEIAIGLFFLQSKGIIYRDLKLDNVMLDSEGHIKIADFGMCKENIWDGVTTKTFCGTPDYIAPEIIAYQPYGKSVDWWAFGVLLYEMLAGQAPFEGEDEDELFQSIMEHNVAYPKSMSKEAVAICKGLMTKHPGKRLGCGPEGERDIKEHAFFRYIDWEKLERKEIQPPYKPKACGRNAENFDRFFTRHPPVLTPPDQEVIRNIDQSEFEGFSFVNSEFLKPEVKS
Sequence of PI3K P110δ (O00329 whole entry, the tested form may be a part): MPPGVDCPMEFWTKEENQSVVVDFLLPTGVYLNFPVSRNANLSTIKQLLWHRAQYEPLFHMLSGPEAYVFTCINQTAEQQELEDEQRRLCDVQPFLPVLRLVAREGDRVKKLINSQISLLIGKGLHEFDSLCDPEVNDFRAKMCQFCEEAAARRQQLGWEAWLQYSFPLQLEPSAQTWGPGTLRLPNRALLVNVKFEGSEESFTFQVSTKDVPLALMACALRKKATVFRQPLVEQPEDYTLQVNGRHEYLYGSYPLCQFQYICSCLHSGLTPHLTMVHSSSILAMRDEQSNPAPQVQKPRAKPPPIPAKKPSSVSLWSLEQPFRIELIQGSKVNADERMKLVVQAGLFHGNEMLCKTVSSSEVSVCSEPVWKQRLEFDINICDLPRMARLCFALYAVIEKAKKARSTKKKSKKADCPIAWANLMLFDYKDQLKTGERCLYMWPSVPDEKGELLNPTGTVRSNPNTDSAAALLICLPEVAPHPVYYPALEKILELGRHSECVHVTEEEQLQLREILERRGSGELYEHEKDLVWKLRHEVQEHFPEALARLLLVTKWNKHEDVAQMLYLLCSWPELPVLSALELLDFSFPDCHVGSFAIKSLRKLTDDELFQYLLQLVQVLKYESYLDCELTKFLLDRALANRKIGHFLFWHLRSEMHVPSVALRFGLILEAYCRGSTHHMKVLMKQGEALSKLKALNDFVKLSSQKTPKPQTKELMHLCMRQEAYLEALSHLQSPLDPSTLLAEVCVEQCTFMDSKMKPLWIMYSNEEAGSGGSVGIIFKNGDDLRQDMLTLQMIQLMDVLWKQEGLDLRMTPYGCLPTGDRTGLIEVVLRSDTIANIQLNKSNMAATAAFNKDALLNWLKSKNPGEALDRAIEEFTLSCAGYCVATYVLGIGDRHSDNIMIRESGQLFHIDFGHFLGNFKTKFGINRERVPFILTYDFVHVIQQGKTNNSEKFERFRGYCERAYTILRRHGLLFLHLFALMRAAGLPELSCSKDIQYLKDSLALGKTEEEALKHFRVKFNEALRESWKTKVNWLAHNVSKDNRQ
Sequence of PI3K P110δ (P27986 whole entry partner, the tested form may be a part): as the sequence (P27986 whole entry partner, species assumed) above

As a reminder, the inhibition is the percentage by which the read-out fell short of the control. `CC(C)C[C@@H](NC(=O)[C@H]1CCCN1C(=O)[C@@H](CC(N)=O)NC(=O)[C@@H](CCCNC(=N)N)NC(=O)[C@@H](C)NC(=O)[C@@H](CCCNC(=N)N)NC(=O)[C@@H](CO)NC(=O)[C@H](N)CCCNC(=N)N)C(=O)N[C@H](Cc1ccc(O)cc1)C(=O)N[C@H](CCCNC(=N)N)C(=O)NCCCC[C@H](NC(=O)[C@H](CCCCNC(=O)[C@H](CCCCNC(=O)[C@@H](CCCNC(=N)N)NC(=O)[C@@H](Cc1ccc(O)cc1)NC(=O)[C@@H](CC(C)C)NC(=O)[C@H]1CCCN1C(=O)[C@@H](CC(N)=O)NC(=O)[C@@H](CCCNC(=N)N)NC(=O)[C@@H](C)NC(=O)[C@@H](CCCNC(=N)N)NC(=O)[C@@H](CO)NC(=O)[C@H](N)CCCNC(=N)N)NC(=O)[C@@H](CCCNC(=N)N)NC(=O)[C@@H](Cc1ccc(O)cc1)NC(=O)[C@@H](CC(C)C)NC(=O)[C@H]1CCCN1C(=O)[C@@H](CC(N)=O)NC(=O)[C@@H](CCCNC(=N)N)NC(=O)[C@@H](C)NC(=O)[C@@H](CCCNC(=N)N)NC(=O)[C@@H](CO)NC(=O)[C@H](N)CCCNC(=N)N)NC(=O)[C@H](CCCCNC(=O)[C@@H](CCCNC(=N)N)NC(=O)[C@@H](Cc1ccc(O)cc1)NC(=O)[C@@H](CC(C)C)NC(=O)[C@H]1CCCN1C(=O)[C@@H](CC(N)=O)NC(=O)[C@@H](CCCNC(=N)N)NC(=O)[C@@H](C)NC(=O)[C@@H](CCCNC(=N)N)NC(=O)[C@@H](CO)NC(=O)[C@H](N)CCCNC(=N)N)NC(=O)[C@@H](CCCNC(=N)N)NC(=O)[C@@H](Cc1ccc(O)cc1)NC(=O)[C@@H](CC(C)C)NC(=O)[C@H]1CCCN1C(=O)[C@@H](CC(N)=O)NC(=O)[C@@H](CCCNC(=N)N)NC(=O)[C@@H](C)NC(=O)[C@@H](CCCNC(=N)N)NC(=O)[C@@H](CO)NC(=O)[C@H](N)CCCNC(=N)N)C(=O)NCCCC[C@H](NC(=O)[C@H](CCCCNC(=O)[C@@H](CCCNC(=N)N)NC(=O)[C@@H](Cc1ccc(O)cc1)NC(=O)[C@@H](CC(C)C)NC(=O)[C@H]1CCCN1C(=O)[C@@H](CC(N)=O)NC(=O)[C@@H](CCCNC(=N)N)NC(=O)[C@@H](C)NC(=O)[C@@H](CCCNC(=N)N)NC(=O)[C@@H](CO)NC(=O)[C@H](N)CCCNC(=N)N)NC(=O)[C@H](CCCCNC(=O)[C@H](CCCCNC(=O)[C@@H](CCCNC(=N)N)NC(=O)[C@@H](Cc1ccc(O)cc1)NC(=O)[C@@H](CC(C)C)NC(=O)[C@H]1CCCN1C(=O)[C@@H](CC(N)=O)NC(=O)[C@@H](CCCNC(=N)N)NC(=O)[C@@H](C)NC(=O)[C@@H](CCCNC(=N)N)NC(=O)[C@@H](CO)NC(=O)[C@H](N)CCCNC(=N)N)NC(=O)[C@@H](CCCNC(=N)N)NC(=O)[C@@H](Cc1ccc(O)cc1)NC(=O)[C@@H](CC(C)C)NC(=O)[C@H]1CCCN1C(=O)[C@@H](CC(N)=O)NC(=O)[C@@H](CCCNC(=N)N)NC(=O)[C@@H](C)NC(=O)[C@@H](CCCNC(=N)N)NC(=O)[C@@H](CO)NC(=O)[C@H](N)CCCNC(=N)N)NC(=O)[C@H](CCCCNC(=O)[C@@H](CCCNC(=N)N)NC(=O)[C@@H](Cc1ccc(O)cc1)NC(=O)[C@@H](CC(C)C)NC(=O)[C@H]1CCCN1C(=O)[C@@H](CC(N)=O)NC(=O)[C@@H](CCCNC(=N)N)NC(=O)[C@@H](C)NC(=O)[C@@H](CCCNC(=N)N)NC(=O)[C@@H](CO)NC(=O)[C@H](N)CCCNC(=N)N)NC(=O)[C@@H](CCCNC(=N)N)NC(=O)[C@@H](Cc1ccc(O)cc1)NC(=O)[C@@H](CC(C)C)NC(=O)[C@H]1CCCN1C(=O)[C@@H](CC(N)=O)NC(=O)[C@@H](CCCNC(=N)N)NC(=O)[C@@H](C)NC(=O)[C@@H](CCCNC(=N)N)NC(=O)[C@@H](CO)NC(=O)[C@H](N)CCCNC(=N)N)C(=O)NCCC(N)=O`: the inhibition at 1 µM on PI3K P110δ was determined as 61%; at PI3K beta it was 24%; on c-RAF (h), 85%; at MEK1 (h) it was 95%; at PKB beta, 87%; on PKB gamma, 97%. Moreover, the inhibition at 1 µM was determined as 53% on PKC alpha, 79% at PKC beta I and 77% at PKC beta II.

Source of the values: patent US20120277161A1, “INHIBITION OF MULTIPLE CELL ACTIVATION PATHWAYS” (INTER-K PTY LIMITED, priority 2009, published 2012).
